In ChEMBL document CHEMBL1151086, “Sulfobetaine zwitterionic inhibitors of squalene synthase” (Bioorg Med Chem Lett, 1996):

target: T1, Squalene synthase (Rattus norvegicus, UniProt Q02769); assay: Inhibitory activity against rat hepatic squalene synthase
T1 sequence (Q02769 whole entry): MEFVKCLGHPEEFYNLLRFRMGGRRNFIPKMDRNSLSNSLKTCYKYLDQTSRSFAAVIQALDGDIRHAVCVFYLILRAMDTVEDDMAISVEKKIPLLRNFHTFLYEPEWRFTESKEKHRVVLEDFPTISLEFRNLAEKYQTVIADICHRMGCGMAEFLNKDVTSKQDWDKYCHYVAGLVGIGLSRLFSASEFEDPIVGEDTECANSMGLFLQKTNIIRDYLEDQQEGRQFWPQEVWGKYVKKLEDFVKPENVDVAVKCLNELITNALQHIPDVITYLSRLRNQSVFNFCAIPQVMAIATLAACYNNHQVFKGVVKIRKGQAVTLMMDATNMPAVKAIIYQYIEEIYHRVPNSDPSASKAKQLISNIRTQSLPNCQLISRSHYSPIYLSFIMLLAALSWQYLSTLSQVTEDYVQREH

Row | Compound | IC50
1 | C[N+](C)(CCCCCCCCCc1ccccc1)CCCCS(=O)(=O)[O-] | 2 µM
2 | C[N+](C)(CCCCCCc1ccccc1)CCCCS(=O)(=O)[O-] | 100 µM
3 | C[N+](C)(CCCCCCCCCCc1ccccc1)CCCCS(=O)(=O)[O-] | 6 µM
4 | C[N+](C)(CCCCCc1ccc(-c2ccccc2)cc1)CCCCS(=O)(=O)[O-] | 5 µM
5 | CC(C)=CCC/C(C)=C/CC/C(C)=C/C[N+](C)(C)CCCCS(=O)(=O)[O-] | 15 µM
6 | C[N+](C)(CCCCCCCCc1ccccc1)CCCCS(=O)(=O)[O-] | 8 µM
7 | C[N+](C)(CCCCc1ccc(-c2ccccc2)cc1)CCCCS(=O)(=O)[O-] | 25 µM
8 | C[N+](C)(CCCCCCc1ccc(-c2ccccc2)cc1)CCCCS(=O)(=O)[O-] | 60 µM

target: T1, Squalene synthase; assay: Compound was evaluated for its inhibitory activity against rat hepatic squalene synthase at a concentration of 1000 uM; NI = No inhibition

Row | Compound | IC50
9 | C[N+](C)(CCCCS(=O)(=O)[O-])CCc1ccccc1 | Not Active
10 | C[N+](C)(CCCCS(=O)(=O)[O-])Cc1ccccc1 | Not Active
